{"source": "PubChem BioAssay (NCI)", "experiment_in_all_cases": "DTP human tumour cell line panel, 384-well format", "key": {"[1]": {"tested_on": "M14 melanoma"}, "[2]": {"tested_on": "SK-OV-3 ovarian"}, "[3]": {"tested_on": "HCT-15 colon"}, "[4]": {"tested_on": "HT29 colon"}, "[5]": {"tested_on": "ACHN renal"}, "[6]": {"tested_on": "RXF 393 renal"}, "[7]": {"tested_on": "NCI/ADR-RES ovarian"}, "[8]": {"tested_on": "MALME-3M melanoma"}, "[9]": {"tested_on": "UO-31 renal"}, "[10]": {"tested_on": "RPMI-8226 leukemia"}, "[11]": {"tested_on": "MCF7 breast"}, "[12]": {"tested_on": "OVCAR-3 ovarian"}, "[13]": {"tested_on": "SK-MEL-28 melanoma"}}, "note": "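The concentration for 50% growth inhibition is given as GI50. TGI marks complete inhibition of growth.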", "data": [{"smiles": "Nc1nc2cc(-c3ccc4ncc(C(=O)N5CCOCC5)n4c3)ccc2o1", "values": [{"measurement": "GI50", "setting": "[1]", "result": 11.6, "unit": "µM"}, {"measurement": "TGI", "setting": "[1]", "result": "> 100", "unit": "µM"}, {"measurement": "GI50", "setting": "[2]", "result": 2.09, "unit": "µM"}, {"measurement": "TGI", "setting": "[2]", "result": 12.3, "unit": "µM"}, {"measurement": "GI50", "setting": "[3]", "result": 6.21, "unit": "µM"}, {"measurement": "TGI", "setting": "[3]", "result": "> 100", "unit": "µM"}, {"measurement": "GI50", "setting": "[4]", "result": 8.1, "unit": "µM"}, {"measurement": "TGI", "setting": "[4]", "result": "> 100", "unit": "µM"}, {"measurement": "GI50", "setting": "[5]", "result": 8.58, "unit": "µM"}, {"measurement": "TGI", "setting": "[5]", "result": "> 100", "unit": "µM"}, {"measurement": "GI50", "setting": "[6]", "result": 40.2, "unit": "µM"}, {"measurement": "TGI", "setting": "[6]", "result": "> 100", "unit": "µM"}, {"measurement": "GI50", "setting": "[7]", "result": "> 100", "unit": "µM"}, {"measurement": "TGI", "setting": "[7]", "result": "> 100", "unit": "µM"}, {"measurement": "GI50", "setting": "[8]", "result": 2.78, "unit": "µM"}, {"measurement": "TGI", "setting": "[8]", "result": "> 68.5", "unit": "µM"}, {"measurement": "GI50", "setting": "[9]", "result": 8.62, "unit": "µM"}, {"measurement": "TGI", "setting": "[9]", "result": "> 100", "unit": "µM"}, {"measurement": "GI50", "setting": "[10]", "result": 1.58, "unit": "µM"}, {"measurement": "TGI", "setting": "[10]", "result": 4.55, "unit": "µM"}, {"measurement": "GI50", "setting": "[11]", "result": 1.45, "unit": "µM"}, {"measurement": "TGI", "setting": "[11]", "result": "> 100", "unit": "µM"}, {"measurement": "GI50", "setting": "[12]", "result": 7.73, "unit": "µM"}, {"measurement": "TGI", "setting": "[12]", "result": "> 100", "unit": "µM"}, {"measurement": "GI50", "setting": "[13]", "result": "> 57.6", "unit": "µM"}, {"measurement": "TGI", "setting": "[13]", "result": "> 100", "unit": "µM"}]}]}
